In ChEMBL document CHEMBL5620414, “Discovery of YK-029A, a novel mutant EGFR inhibitor targeting both T790 M and exon 20 insertion mutations, as a treatment for NSCLC” (Eur J Med Chem, 2023):

Experiments:
[1] = target: Epidermal growth factor receptor (Homo sapiens, UniProt P00533); assay: Inhibition of wildtype EGFR (unknown origin) incubated for 60 mins in presence of ATP by biochemical enzymatic assay
[2] = target: Epidermal growth factor receptor (Homo sapiens, UniProt P00533, L858R/T790M); assay: Inhibition of GST-tagged recombinant human EGFR T790M/L858R mutant (668 to 1210 residues) expressed in Insect cells incubated for 60 mins in presence of ATP by biochemical enzymatic assay; parameters: species or system Insect cell
A-431 = assay: Antiproliferative activity against human A-431 cells harboring wildtype EGFR assessed as cell growth inhibition incubated for 72 hrs by CellTiter Glo assay; assay type: functional
PC-9 = assay: Antiproliferative activity against human PC-9 cells harboring EGFR del19 mutant assessed as cell growth inhibition incubated for 72 hrs by CellTiter Glo assay; assay type: functional; conditions: Homo sapiens, PC-9
HCC827 = assay: Antiproliferative activity against human HCC827 cells harboring EGFR del19 mutant assessed as cell growth inhibition incubated for 72 hrs by CellTiter Glo assay; assay type: functional; conditions: Homo sapiens, HCC827
NCI-H1975 = assay: Antiproliferative activity against human NCI-H1975 cells harboring EGFR L858R/T790M mutant assessed as cell growth inhibition incubated for 72 hrs by CellTiter Glo assay; assay type: functional; conditions: Homo sapiens, NCI-H1975
BaF3 = assay: Antiproliferative activity against mouse BaF3 cells harboring EGFR D770_N771ins_SVD mutant assessed as cell growth inhibition incubated for 72 hrs by CellTiter Glo assay; assay type: functional; conditions: Mus musculus, BaF3

Sequence of Epidermal growth factor receptor (Homo sapiens, UniProt P00533) (P00533 whole entry, the tested form may be a part): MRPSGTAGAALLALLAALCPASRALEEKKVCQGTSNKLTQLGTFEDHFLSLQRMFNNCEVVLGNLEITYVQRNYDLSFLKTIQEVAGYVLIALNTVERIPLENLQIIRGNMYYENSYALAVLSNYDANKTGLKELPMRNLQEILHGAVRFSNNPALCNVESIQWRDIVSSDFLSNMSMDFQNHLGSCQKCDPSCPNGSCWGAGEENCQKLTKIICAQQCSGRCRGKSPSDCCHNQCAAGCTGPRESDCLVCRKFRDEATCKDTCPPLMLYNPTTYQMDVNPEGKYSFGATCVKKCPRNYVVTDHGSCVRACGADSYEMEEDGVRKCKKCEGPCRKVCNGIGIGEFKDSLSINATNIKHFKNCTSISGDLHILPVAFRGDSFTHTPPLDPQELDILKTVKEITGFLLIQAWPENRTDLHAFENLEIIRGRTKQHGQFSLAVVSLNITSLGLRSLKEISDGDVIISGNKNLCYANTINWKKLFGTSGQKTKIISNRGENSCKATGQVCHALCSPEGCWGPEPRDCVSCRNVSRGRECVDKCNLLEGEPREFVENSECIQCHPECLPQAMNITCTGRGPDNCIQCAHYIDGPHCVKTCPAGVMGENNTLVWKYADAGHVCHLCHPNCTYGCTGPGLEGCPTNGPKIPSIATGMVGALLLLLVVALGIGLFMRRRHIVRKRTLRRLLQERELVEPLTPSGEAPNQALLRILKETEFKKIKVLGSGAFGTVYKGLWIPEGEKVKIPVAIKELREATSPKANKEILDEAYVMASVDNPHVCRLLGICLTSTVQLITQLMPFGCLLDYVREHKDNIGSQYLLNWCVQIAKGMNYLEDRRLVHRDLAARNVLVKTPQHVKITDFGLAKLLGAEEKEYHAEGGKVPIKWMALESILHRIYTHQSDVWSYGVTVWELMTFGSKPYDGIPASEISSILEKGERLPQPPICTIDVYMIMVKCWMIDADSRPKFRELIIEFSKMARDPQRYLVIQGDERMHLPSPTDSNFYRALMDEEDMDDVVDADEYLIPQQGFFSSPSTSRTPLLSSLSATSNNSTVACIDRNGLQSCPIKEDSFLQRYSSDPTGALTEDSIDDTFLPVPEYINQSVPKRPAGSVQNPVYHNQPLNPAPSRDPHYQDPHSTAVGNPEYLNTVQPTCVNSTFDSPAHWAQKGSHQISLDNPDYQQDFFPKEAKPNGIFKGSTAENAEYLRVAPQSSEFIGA

IC50 [1] [nM] | IC50 [2] [nM] | Structure (SMILES) | other results
212 | 1.59 | C=CC(=O)Nc1cc(Nc2nccc(-c3cnc4c(C)cccn34)n2)c(OC)cc1N(C)CCN1CCOCC1 | 
16.6 | 1.41 | C=CC(=O)Nc1cc(Nc2nccc(-c3cnn4c(C)cccc34)n2)c(OC)cc1N(C)CCN(C)C | 

Second part, the compound before the results:

Structure (SMILES) | IC50 [1] [nM] | IC50 [2] [nM] | other results
C=CC(=O)Nc1cc(Nc2nccc(-c3cnc4c(OC)cccn34)n2)c(OC)cc1N(C)CCN(C)C | 16.3 | 1.65 | 
COc1cc(N(C)CCN(C)C)c(NC(=O)/C=C/CN(C)C)cc1Nc1nccc(-c2cnc3c(C)cccn23)n1 | 46.8 | 1.15 | 
COc1cc(N(C)CCN(C)C)c(NC(=O)/C=C/CN(C)C)cc1Nc1nccc(-c2ncc3c(C)cccn23)n1 | 50.2 | 1.27 | 
C=CC(=O)Nc1cc(Nc2nccc(-c3cnc4c(Cl)cccn34)n2)c(OC)cc1N(C)CCN(C)C |  |  | GI50 (A-431): 495 nM; GI50 (PC-9): 7.3 nM; GI50 (HCC827): 5.6 nM; GI50 (NCI-H1975): 103 nM
C=CC(=O)Nc1cc(Nc2nccc(-c3ccc4c(C)nccn34)n2)c(OC)cc1N(C)CCN(C)C | 26 | 1.52 | 
C=CC(=O)Nc1cc(Nc2ncc(C(=O)OC(C)C)c(-c3cn(C)c4ccccc34)n2)c(OC)cc1N(C)CCN(C)C [MOBOCERTINIB] |  |  | GI50 (A-431): 26 nM; GI50 (BaF3): 9 nM
